Measurements as given in patent publication US10959979B2, “Small molecules against cancer” (Biokine Therapeutics Ltd., priority 2015, dated 2021).
“Also recorded” adds a separate entry of the source.

Key:
[1] = molecular target: MIP3a (Homo sapiens, UniProt P78556); experiment: Migration of CD4+ T-cells toward MIP3a (Transwell migration assay); type: cell-based
Protocol: (§1) 600 μl of RPMI medium was added to the lower chambers of Transwell® transmigration plates, supplemented with 2 μg/ml of MIP3a, 100 ng/ml of SDF-1 or 10 ng/ml of MCP-1. The tested small molecule was added to the lower chambers at the indicated concentration, except in control samples. The MIP3a, SDF-1 or MCP-1 was incubated with the small molecule for 30 minutes at room temperature before the initiation of the migration assay. Following 30 minutes of incubation 2×10^5 immune cells were added to the upper chambers of the transmigration plates in a total volume of 100 μl. Cells which migrated within 3 hours to the bottom chamber of the Transwell® plates were counted using a FACScalibur™ flow cytometer.
To evaluate migration toward MIP3a, peripheral blood mononuclear cells (PBMCs) were isolated from heparinized venous blood by centrifugation over Ficoll Histopaque® 1077. CD4+ T cells were further isolated with RosetteSep™ human CD4+ T-cell Enrichment cocktail (StemCell Technologies Inc.), according to the manufacturer's instructions. CD4+ T cells were re-suspended in RPMI medium containing 1% fetal calf serum (FCS).

[2] = molecular target: SDF-1 (Homo sapiens, UniProt P48061); experiment: Migration of Jurkat cells towards SDF-1 (Transwell migration assay); type: cell-based; settings: for Selectivity of inhibition of SDF-1 function over MCP-1 and/or MIP3a function: at a concentration of about 10 μg/ml
Sequence of SDF-1 (P48061 22-93): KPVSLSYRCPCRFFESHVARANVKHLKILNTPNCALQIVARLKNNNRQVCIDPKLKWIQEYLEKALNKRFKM
Protocol: as §1
To evaluate migration towards SDF-1, Jurkat cells were re-suspended in RPMI medium containing 1% fetal calf serum (FCS).

[3] = molecular target: MCP-1 (Homo sapiens, UniProt P13500); experiment: Migration of THP-1 cells towards MCP-1 (Transwell migration assay); type: cell-based; settings: BKT300 at 78% purity
Sequence of MCP-1 (P13500 24-99): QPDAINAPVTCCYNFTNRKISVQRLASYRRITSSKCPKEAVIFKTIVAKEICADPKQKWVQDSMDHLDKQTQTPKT
Protocol: as §1
To evaluate migration towards MCP-1, THP-1 cells were re-suspended in RPMI medium containing 1% fetal calf serum (FCS).

[4] = test system: Legionella; settings: cited from earlier work
[5] = test system: cancer cells; settings: literature reports; cited from earlier work
[6] = test system: MV4-11 human acute myeloid leukemia cells; experiment: Cancer cell viability, FACS with propidium iodide staining; type: cell-based; settings: 24 hours
Protocol: In order to assess the effect of compounds of Table 2 on cancer cell viability, the in vitro effect of the compounds on MV4-11 human acute myeloid leukemia cells was evaluated. The cancer cells were incubated in RPMI cell medium with 1% fetal calf serum (FCS) at a concentration of 2×10^5 cells/well at a final volume of 250 μl in 96-well plate. The compounds were added to the cells at the indicated concentrations. The cells were incubated for 24 hours and the number of dead and viable cells was then evaluated by fluorescence-activated cell sorting (FACS), using propidium iodide (PI) staining.

[7] = test system: MCP-1 expression in adipocytes; settings: reported by Kuroyanagi et al.; cited from earlier work

Sequence of MIP3a (P78556 27-96): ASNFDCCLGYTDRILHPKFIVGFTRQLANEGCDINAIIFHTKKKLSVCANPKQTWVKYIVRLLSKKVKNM

Structure (SMILES)	Inhibition of CD4+ T-cell migration towards MIP3a ([1]; 10 μg/ml)	Inhibition of CD4+ T-cell migration towards MIP3a ([1]; 50 μg/ml, BKT300 at 78% purity)	Inhibition of migration of lymphocytic Jurkat cells towards SDF-1 ([2]; 10 μg/ml, BKT300 at 78% purity)	Inhibition of migration of monocytic THP-1 cells towards MCP-1 ([3]; 10 μg/ml)	Inhibition of migration of monocytic THP-1 cells towards MCP-1 ([3]; 50 μg/ml)	also measured
C=C1CCC2C(C)(C)C(O)CCC2(C)C1COc1ccc2ccc(=O)oc2c1 (stereo not drawn) [BKT202]	significantly inhibited	completely inhibited	–	–	–	–
Cc1c(O)c(C)c2c(c1O)C(=O)CC(c1ccc(O)c(O)c1)O2 (stereo not drawn) [BKT204, Cyrtominetin]	–	–	significantly inhibited	partial inhibition	strong inhibition	–
CCCCCC(=O)Cc1cc(O)cc(O)c1Oc1cc(O)cc2cc(CCCCC)oc(=O)c12 [8-(2,4-dihydroxy-6-(2-oxoheptyl)-phenoxy)-6-hydroxy-3-pentyl-1H-isochromen-1-one]	–	–	–	–	–	Antibacterial activity against Legionella [4]: potent antibacterial activity
CCCCCC=CC=CC(=O)CCCCCCCC(=O)O [BKT205]	–	completely inhibited	significantly inhibited; also recorded: strong inhibition	no apparent effect	strong inhibition	Selectivity of inhibition of SDF-1 function over MCP-1 and/or MIP3a function [2]: relatively selective manner
Cc1cc(O)c2c(=O)c3c(O)cc(O)c4c5c(O)cc(O)c6c(=O)c7c(O)cc(C)c8c1c2c(c34)c(c78)c65 [BKT203, Hypericin]	completely inhibited	–	significantly inhibited; also recorded: strong inhibition	–	–	–
CCCCCCCCC(=O)/C=C/C=C/C(=O)CCCC(=O)O [BKT209]	–	completely inhibited	significantly inhibited; also recorded: strong inhibition	no apparent effect	strong inhibition	Selectivity of inhibition of SDF-1 function over MCP-1 and/or MIP3a function [2]: relatively selective manner
CC1(C)CC[C@]2(C(=O)O)CC[C@]3(C)C(=CC[C@@H]4[C@@]5(C)C[C@@H](O)[C@H](O)[C@@](C)(CO)[C@@H]5CC[C@]43C)[C@@H]2C1 [BKT216, Arjunolic acid]	–	–	–	partial inhibition	strong inhibition	Inhibition of cancer cells [5]: inhibit cancer cells
CC(C)=CCc1c(O[C@@H]2O[C@H](CO)[C@@H](O)[C@H](O)[C@H]2O)cc(O)c2c1O[C@H](c1ccc(O)cc1)CC2=O [BKT201]	–	completely inhibited	significantly inhibited; also recorded: strong inhibition	no apparent effect	strong inhibition	Selectivity of inhibition of SDF-1 function over MCP-1 and/or MIP3a function [2]: relatively selective manner
O=C(O)c1cc(O)c2c(c1)[C@H]([C@H]1c3cc(C(=O)O)cc(O)c3C(=O)c3c(O[C@@H]4O[C@H](CO)[C@@H](O)[C@H](O)[C@H]4O)cccc31)c1cccc(O[C@@H]3O[C@H](CO)[C@@H](O)[C@H](O)[C@H]3O)c1C2=O [BKT210, Sennoside A]	significantly inhibited	completely inhibited	significantly inhibited	–	–	–
C=C[C@H](O)C#CC#C[C@@H](O)/C=C\CCCCCCC [BKT212, Falcarindiol]	completely inhibited	–	significantly inhibited; also recorded: strong inhibition	–	–	Inhibition of cancer cells [5]: inhibit cancer cells
C/C(=C/COc1c2occc2cc2ccc(=O)oc12)CO [BKT208, Trichoclin]	–	–	significantly inhibited	–	–	–
COC(=O)c1c(O)cc2c(c1C)C(=O)c1c(O)cccc1C2=O [BKT207, Aloesaponarin I]	completely inhibited	–	significantly inhibited; also recorded: strong inhibition	–	–	–
CCC/C=C\C/C=C\CCCCCCCc1cccc(O)c1C(=O)O [BKT206]	completely inhibited	–	significantly inhibited; also recorded: strong inhibition	partial inhibition	strong inhibition	Cell death of MV4-11 cells ([6]; 10 μg/ml): induced cell death
CC1CCC2=C(CCCC2(C)C(=O)O)C1(C)CCc1ccoc1 (stereo not drawn) [BKT211]	–	–	significantly inhibited; also recorded: strong inhibition	complete inhibition	strong inhibition	Cell death of MV4-11 cells ([6]; 10 μg/ml): induced cell death
CC(C)=CCc1cc(OC2O[C@H](CO)[C@@H](O)[C@H](O)[C@H]2O)cc(CC=C(C)C)c1C(O)C(=O)O (stereo partly drawn) [BKT213]	–	completely inhibited	significantly inhibited; also recorded: strong inhibition	–	–	Selectivity of inhibition of SDF-1 function over MCP-1 and/or MIP3a function [2]: relatively selective manner
CCCCCc1cc2cc(O)cc(Oc3c(O)cc(O)c(C(=O)O)c3CCCCC)c2c(=O)o1 [BKT400]	–	–	–	–	–	Inhibition of migration of lymphocytic Jurkat cells towards SDF-1 ([2]; 1 and 10 μg/ml tested (FIG. 15)): inhibit the migration
CC(C)=CCC/C(C)=C/COc1ccc2ccc(=O)oc2c1 [BKT215, Auraptene]	–	–	–	–	–	Inhibition of cancer cells [5]: inhibit cancer cells; MCP-1 expression in adipocytes [7]: suppress MCP-1 expression; Cell death of MV4-11 cells ([6]; 20 am (equivalent to 6 μg/ml)): induced cell death
